Source: ChEMBL document CHEMBL4831518, “Structure-aided optimization of non-nucleoside M. tuberculosis thymidylate kinase inhibitors” (Eur J Med Chem, 2021)
In brackets after ≈: the same amount, converted by molar mass.

Experiments:
[1] = system: Mycobacterium tuberculosis; experiment: Antibacterial activity against Mycobacterium tuberculosis H37Rv harboring Tap deletion mutant assessed as inhibition of bacterial growth incubated for 6 hrs by microdilution assay; type: functional
[2] = system: Mycobacterium tuberculosis; experiment: Antibacterial activity against Mycobacterium tuberculosis H37Rv harboring mmr deletion mutant assessed as inhibition of bacterial growth incubated for 6 hrs by microdilution assay; type: functional

Q: What does the source list for `Cc1cn(C2CCN(Cc3ccnc(Oc4cccc(Cl)c4)c3)CC2)c(=O)[nH]c1=O`?
A: MIC [1]: 31.25 µg/mL (≈ 73.2 µM); MIC [2]: 31.25 µg/mL (≈ 73.2 µM)

Q: `COc1ccc(Oc2cccc(CN3CCC(n4cc(C)c(=O)[nH]c4=O)CC3)c2)cc1` was tested. Which MIC [1] did it give?
A: The MIC was 31.25 µg/mL (≈ 74.1 µM).

Q: And the MIC [2]?
A: Its MIC is 15.6 µg/mL (≈ 37 µM).

Q: Which results are given for `Cc1cn(C2CCN(Cc3cccc(Oc4ccccc4)n3)CC2)c(=O)[nH]c1=O`?
A: MIC [1]: >250 µg/mL; MIC [2]: >250 µg/mL

Q: What does the source list for `Cc1cn(C2CCN(Cc3cccc(Oc4cc(Cl)cc(Cl)c4)c3)CC2)c(=O)[nH]c1=O`?
A: MIC [1]: 15.6 µg/mL (≈ 33.9 µM); MIC [2]: 15.6 µg/mL (≈ 33.9 µM)

Q: `Cc1ccc(Oc2cccc(CN3CCC(n4cc(C)c(=O)[nH]c4=O)CC3)c2)cc1` was tested. Which MIC [1] did it give?
A: The MIC was 15.6 µg/mL (≈ 38.5 µM).

Q: What about the MIC [2] of the same compound?
A: The MIC was 15.6 µg/mL (≈ 38.5 µM).
